# Data taken from ChEMBL document CHEMBL1140238, “Synthesis of selective SRPK-1 inhibitors: novel tricyclic quinoxaline derivatives” (Bioorg Med Chem Lett, 2005).
# Legend:
# [1] = molecular target: T1, Inhibitor of nuclear factor kappa-B kinase subunit beta (Homo sapiens) (UniProt O14920); experiment: In vitro percent inhibition of I-kappa-B-kinase beta at 10 uM concentration of compound dissolved in 100% DMSO using 5''-[gamma-33P]-triphosphate
# T1 sequence (whole entry): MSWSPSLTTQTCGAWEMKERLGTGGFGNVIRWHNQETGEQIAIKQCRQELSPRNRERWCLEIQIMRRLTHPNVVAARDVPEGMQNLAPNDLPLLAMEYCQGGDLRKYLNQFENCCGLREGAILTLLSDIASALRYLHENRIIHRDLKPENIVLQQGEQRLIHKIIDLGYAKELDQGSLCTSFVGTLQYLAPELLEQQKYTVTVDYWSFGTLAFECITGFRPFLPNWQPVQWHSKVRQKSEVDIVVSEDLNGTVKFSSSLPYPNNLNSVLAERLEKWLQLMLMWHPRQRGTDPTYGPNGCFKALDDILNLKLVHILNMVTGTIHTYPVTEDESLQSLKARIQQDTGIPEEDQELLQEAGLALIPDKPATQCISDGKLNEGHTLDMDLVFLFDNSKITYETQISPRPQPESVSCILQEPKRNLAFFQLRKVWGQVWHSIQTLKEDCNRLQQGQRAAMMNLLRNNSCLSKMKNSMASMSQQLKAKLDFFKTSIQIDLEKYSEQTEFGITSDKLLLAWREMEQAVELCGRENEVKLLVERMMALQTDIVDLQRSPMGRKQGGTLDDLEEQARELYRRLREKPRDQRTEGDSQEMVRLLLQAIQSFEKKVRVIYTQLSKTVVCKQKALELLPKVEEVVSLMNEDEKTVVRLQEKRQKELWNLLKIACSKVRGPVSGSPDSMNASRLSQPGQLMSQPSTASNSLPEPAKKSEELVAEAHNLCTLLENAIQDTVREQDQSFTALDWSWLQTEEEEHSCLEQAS
# [2] = molecular target: Proto-oncogene tyrosine-protein kinase Src (Homo sapiens) (UniProt P12931); experiment: In vitro percent inhibition of c-Src tyrosine kinase at 10 uM concentration of compound dissolved in 100% DMSO using 5''-[gamma-33P]-triphosphate
# [3] = molecular target: Insulin receptor (Homo sapiens) (UniProt P06213); experiment: In vitro percent inhibition of Insulin receptor at 10 uM concentration of compound dissolved in 100% DMSO using 5''-[gamma-33P]-triphosphate
# [4] = molecular target: Casein kinase I isoform alpha (Homo sapiens) (UniProt P48729); experiment: In vitro percent inhibition of Casein kinase 1 alpha at 10 uM concentration of compound dissolved in 100% DMSO using 5''-[gamma-33P]-triphosphate
# [5] = molecular target: Glycogen synthase kinase-3 beta (Homo sapiens) (UniProt P49841); experiment: In vitro percent inhibition of Glycogen synthase kinase 3 beta at 10 uM concentration of compound dissolved in 100% DMSO using 5''-[gamma-33P]-triphosphate
# [6] = molecular target: Mast/stem cell growth factor receptor Kit (Homo sapiens) (UniProt P10721); experiment: In vitro percent inhibition of v-kit Hardy-Zuckerman 4 feline sarcoma viral oncogene homolog at 10 uM concentration of compound dissolved in 100% DMSO using 5''-[gamma-33P]-triphosphate
# [7] = molecular target: Tyrosine-protein kinase Lck (Homo sapiens) (UniProt P06239); experiment: In vitro percent inhibition of p56 Lck tyrosine kinase at 10 uM concentration of compound dissolved in 100% DMSO using 5''-[gamma-33P]-triphosphate
# [8] = molecular target: RAC-alpha serine/threonine-protein kinase (Homo sapiens) (UniProt P31749); experiment: In vitro percent inhibition of Protein kinase B, alpha at 10 uM concentration of compound dissolved in 100% DMSO using 5''-[gamma-33P]-triphosphate
# [9] = molecular target: RAF proto-oncogene serine/threonine-protein kinase (Homo sapiens) (UniProt P04049); experiment: In vitro percent inhibition of RAF proto-oncogene serine/threonine-protein kinase at 10 uM concentration of compound dissolved in 100% DMSO using 5''-[gamma-33P]-triphosphate
# [10] = molecular target: T2, Tyrosine-protein kinase transforming protein Abl (Abelson murine leukemia virus) (UniProt P00521); experiment: In vitro percent inhibition of v-Abl tyrosine kinase at 10 uM concentration of compound dissolved in 100% DMSO using 5''-[gamma-33P]-triphosphate
# T2 sequence (whole entry): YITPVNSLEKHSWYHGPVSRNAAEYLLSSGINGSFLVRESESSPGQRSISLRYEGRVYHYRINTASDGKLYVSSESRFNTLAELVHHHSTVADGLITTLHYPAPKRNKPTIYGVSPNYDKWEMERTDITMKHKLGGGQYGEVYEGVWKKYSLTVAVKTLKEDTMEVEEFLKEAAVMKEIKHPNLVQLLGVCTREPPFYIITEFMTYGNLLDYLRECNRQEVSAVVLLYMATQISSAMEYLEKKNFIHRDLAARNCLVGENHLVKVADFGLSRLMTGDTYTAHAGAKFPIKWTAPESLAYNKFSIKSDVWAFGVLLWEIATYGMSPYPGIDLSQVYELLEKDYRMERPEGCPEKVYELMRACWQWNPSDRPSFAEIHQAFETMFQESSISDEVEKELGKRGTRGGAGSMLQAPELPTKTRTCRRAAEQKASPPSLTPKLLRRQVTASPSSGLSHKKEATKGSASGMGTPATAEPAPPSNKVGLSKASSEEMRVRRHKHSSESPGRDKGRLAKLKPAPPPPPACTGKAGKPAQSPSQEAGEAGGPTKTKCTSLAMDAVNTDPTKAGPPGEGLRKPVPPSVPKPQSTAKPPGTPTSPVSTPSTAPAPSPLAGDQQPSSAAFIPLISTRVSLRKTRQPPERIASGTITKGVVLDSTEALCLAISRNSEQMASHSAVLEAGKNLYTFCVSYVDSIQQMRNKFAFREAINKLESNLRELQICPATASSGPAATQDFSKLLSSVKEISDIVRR
# [11] = Partition coefficient (logP); format: physicochemical; settings: octanol/water
# [12] = molecular target: Platelet-derived growth factor receptor beta (Homo sapiens) (UniProt P09619); experiment: In vitro percent inhibition of Platelet-derived growth factor receptor, beta polypeptide at 10 uM concentration of compound dissolved in 100% DMSO using 5''-[gamma-33P]-triphosphate
# [13] = molecular target: Hepatocyte growth factor receptor (Homo sapiens) (UniProt P08581); experiment: In vitro percent inhibition of Met proto-oncogene tyrosine kinase at 10 uM concentration of compound dissolved in 100% DMSO using 5''-[gamma-33P]-triphosphate
# [14] = In vitro percent inhibition of Ribosomal S6 kinase 1 at 10 uM concentration of compound dissolved in 100% DMSO using 5''-[gamma-33P]-triphosphate
# [15] = molecular target: Mitogen-activated protein kinase 3 (Homo sapiens) (UniProt P27361); experiment: In vitro percent inhibition of Mitogen-activated protein kinase 3 at 10 uM concentration of compound dissolved in 100% DMSO using 5''-[gamma-33P]-triphosphate
# [16] = In vitro percent inhibition of Cyclin-dependent kinase 2-cyclin A at 10 uM concentration of compound dissolved in 100% DMSO using 5''-[gamma-33P]-triphosphate
# [17] = molecular target: Epidermal growth factor receptor (Homo sapiens) (UniProt P00533); settings: 10 uM
# [18] = molecular target: Mitogen-activated protein kinase 8 (Homo sapiens) (UniProt P45983); experiment: In vitro percent inhibition of c-Jun N-terminal kinase 1-alpha 1 at 10 uM concentration of compound dissolved in 100% DMSO using 5''-[gamma-33P]-triphosphate
# [19] = molecular target: Ribosomal protein S6 kinase (P70S6K) (Homo sapiens) (UniProt Q9UBS0+P23443); experiment: In vitro percent inhibition of Ribosomal protein S6 kinase at 10 uM concentration of compound dissolved in 100% DMSO using 5''-[gamma-33P]-triphosphate; format: protein-complex assay
# [20] = molecular target: Rho-associated protein kinase 2 (Homo sapiens) (UniProt O75116); experiment: In vitro percent inhibition of Protein kinase ROCK2 at 10 uM concentration of compound dissolved in 100% DMSO using 5''-[gamma-33P]-triphosphate
# [21] = system: SRPK1 (Homo sapiens); experiment: In vitro inhibition of SR protein kinase 1 by compound dissolved in 100% DMSO using 5''-[gamma-33P]-triphosphate; n.a. - not active
# Sequence of Insulin receptor (Homo sapiens) (P06213 28-758 limits assumed): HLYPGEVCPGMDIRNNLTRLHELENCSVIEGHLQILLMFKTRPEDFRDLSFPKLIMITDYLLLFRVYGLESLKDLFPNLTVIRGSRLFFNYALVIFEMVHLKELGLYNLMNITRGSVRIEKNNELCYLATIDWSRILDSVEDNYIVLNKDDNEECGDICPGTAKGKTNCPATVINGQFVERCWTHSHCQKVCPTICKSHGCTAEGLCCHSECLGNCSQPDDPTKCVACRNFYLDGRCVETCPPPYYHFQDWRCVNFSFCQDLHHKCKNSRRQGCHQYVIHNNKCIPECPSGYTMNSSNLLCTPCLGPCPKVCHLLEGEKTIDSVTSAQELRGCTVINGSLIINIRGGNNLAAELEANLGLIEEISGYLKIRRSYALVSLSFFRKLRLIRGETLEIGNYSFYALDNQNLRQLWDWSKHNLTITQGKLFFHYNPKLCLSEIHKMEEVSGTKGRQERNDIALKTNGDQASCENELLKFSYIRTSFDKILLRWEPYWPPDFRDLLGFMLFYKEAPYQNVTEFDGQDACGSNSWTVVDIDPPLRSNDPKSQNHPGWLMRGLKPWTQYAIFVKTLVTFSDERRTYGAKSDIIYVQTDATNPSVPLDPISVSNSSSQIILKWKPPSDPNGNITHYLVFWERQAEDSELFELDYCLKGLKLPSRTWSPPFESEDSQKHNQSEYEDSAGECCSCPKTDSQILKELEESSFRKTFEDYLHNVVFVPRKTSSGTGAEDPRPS
# Sequence of Insulin receptor (Homo sapiens) (P06213 763-1382 limits assumed): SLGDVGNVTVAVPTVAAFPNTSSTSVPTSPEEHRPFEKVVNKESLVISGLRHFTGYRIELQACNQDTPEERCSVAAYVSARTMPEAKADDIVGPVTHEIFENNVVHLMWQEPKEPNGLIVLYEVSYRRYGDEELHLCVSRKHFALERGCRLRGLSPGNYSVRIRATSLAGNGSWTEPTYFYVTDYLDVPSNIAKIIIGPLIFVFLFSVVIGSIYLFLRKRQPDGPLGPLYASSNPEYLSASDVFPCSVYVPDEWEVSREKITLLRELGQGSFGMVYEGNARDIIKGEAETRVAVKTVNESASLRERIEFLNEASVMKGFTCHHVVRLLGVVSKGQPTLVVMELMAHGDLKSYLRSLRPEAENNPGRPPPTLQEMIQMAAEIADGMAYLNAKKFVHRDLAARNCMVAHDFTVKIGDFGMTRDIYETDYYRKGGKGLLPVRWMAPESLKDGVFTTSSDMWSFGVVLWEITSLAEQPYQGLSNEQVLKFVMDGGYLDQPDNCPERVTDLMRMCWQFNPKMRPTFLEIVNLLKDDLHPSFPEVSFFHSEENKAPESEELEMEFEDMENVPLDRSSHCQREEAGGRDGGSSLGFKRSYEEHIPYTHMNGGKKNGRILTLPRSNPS
# Sequence of Mast/stem cell growth factor receptor Kit (Homo sapiens) (P10721 whole entry): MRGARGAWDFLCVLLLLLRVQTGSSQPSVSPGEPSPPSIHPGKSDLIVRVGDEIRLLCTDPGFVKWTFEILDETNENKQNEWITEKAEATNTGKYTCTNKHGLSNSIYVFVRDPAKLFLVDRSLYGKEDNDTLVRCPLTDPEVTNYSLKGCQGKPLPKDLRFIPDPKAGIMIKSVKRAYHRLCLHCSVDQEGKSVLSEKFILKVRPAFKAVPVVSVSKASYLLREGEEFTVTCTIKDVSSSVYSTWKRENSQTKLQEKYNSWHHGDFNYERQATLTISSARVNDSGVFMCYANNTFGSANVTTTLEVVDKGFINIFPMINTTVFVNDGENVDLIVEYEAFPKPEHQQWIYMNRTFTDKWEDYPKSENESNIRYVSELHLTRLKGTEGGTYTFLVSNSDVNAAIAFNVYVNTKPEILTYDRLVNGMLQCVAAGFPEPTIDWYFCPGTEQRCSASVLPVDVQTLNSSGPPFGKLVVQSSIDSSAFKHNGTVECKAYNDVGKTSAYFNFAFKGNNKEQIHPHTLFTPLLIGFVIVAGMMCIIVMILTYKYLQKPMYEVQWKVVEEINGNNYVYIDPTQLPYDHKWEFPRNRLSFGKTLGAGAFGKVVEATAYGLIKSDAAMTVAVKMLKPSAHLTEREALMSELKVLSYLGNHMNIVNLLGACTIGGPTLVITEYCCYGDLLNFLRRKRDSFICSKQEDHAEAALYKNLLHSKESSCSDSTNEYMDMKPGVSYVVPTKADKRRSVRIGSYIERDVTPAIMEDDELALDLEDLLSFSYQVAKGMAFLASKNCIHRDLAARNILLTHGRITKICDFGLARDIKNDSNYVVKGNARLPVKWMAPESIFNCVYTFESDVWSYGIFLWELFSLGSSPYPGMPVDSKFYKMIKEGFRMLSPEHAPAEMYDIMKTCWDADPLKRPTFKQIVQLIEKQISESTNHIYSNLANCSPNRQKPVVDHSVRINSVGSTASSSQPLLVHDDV
# Sequence of Epidermal growth factor receptor (Homo sapiens) (P00533 whole entry): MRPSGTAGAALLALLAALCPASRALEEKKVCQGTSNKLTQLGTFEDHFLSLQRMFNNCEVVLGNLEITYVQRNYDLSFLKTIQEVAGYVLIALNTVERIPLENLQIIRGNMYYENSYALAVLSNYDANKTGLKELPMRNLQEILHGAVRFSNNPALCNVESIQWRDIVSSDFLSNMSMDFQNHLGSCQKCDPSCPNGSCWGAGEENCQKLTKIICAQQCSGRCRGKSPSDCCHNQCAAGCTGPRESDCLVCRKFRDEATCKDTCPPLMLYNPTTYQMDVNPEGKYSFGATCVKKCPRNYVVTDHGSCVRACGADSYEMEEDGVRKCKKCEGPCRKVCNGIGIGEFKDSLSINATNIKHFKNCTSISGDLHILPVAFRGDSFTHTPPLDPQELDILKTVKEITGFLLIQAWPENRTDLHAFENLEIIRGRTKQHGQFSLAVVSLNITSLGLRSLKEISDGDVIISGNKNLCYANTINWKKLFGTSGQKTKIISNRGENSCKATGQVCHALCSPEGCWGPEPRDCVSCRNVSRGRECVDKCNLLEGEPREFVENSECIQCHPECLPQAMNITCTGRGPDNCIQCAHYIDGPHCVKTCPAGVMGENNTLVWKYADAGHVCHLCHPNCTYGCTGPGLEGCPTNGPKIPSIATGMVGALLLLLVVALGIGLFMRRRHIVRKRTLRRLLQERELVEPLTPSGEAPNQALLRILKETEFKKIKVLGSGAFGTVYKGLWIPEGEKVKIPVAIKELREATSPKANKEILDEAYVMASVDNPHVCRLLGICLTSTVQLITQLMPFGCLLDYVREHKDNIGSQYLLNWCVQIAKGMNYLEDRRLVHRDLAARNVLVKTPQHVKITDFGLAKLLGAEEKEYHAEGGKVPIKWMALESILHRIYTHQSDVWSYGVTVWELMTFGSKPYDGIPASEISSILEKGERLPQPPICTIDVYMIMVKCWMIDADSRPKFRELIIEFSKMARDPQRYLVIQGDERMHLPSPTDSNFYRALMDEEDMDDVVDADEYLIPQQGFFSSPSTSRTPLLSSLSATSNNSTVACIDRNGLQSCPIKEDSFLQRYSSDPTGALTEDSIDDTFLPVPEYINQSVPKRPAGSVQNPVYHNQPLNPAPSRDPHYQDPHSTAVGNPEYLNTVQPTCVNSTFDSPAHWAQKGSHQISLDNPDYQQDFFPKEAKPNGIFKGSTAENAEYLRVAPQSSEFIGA
# Sequence of Hepatocyte growth factor receptor (Homo sapiens) (P08581 whole entry): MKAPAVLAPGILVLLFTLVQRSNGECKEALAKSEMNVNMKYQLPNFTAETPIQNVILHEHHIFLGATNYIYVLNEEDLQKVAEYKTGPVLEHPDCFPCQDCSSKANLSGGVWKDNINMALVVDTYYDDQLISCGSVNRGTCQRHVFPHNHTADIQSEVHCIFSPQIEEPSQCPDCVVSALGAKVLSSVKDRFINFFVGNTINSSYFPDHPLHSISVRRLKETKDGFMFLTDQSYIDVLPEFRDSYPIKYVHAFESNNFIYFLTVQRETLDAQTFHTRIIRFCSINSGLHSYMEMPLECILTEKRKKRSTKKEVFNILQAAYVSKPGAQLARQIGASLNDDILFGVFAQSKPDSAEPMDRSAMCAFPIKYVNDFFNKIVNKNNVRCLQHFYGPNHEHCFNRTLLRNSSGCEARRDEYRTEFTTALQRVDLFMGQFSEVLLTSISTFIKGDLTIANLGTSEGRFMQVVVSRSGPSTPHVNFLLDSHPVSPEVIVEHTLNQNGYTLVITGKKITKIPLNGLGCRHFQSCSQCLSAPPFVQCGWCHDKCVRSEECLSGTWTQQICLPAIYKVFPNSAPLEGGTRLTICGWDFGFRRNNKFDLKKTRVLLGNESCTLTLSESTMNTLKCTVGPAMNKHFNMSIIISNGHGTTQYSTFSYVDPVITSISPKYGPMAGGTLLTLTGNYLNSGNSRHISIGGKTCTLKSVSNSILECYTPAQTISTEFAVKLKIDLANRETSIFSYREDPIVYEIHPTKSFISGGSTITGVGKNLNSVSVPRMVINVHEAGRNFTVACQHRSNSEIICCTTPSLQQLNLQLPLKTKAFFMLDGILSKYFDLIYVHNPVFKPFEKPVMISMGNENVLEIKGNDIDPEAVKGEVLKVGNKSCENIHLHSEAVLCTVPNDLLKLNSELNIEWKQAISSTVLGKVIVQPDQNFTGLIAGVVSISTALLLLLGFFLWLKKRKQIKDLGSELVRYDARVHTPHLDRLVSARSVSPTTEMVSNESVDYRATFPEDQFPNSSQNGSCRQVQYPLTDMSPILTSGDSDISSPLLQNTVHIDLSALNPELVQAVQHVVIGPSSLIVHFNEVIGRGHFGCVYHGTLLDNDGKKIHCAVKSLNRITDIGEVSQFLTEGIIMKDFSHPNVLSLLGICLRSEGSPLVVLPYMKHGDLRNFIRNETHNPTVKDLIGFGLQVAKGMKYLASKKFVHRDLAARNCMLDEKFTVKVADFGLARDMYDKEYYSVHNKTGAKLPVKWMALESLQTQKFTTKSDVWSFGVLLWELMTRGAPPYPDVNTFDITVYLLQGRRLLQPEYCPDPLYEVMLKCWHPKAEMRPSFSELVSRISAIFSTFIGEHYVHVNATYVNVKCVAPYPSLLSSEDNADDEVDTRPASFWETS
inhibition [1] [%],inhibition [2] [%],inhibition [3] [%],inhibition [4] [%],inhibition [5] [%],inhibition [6] [%],inhibition [7] [%],inhibition [8] [%],inhibition [9] [%],inhibition [10] [%],logP [11],inhibition [12] [%],inhibition [13] [%],inhibition [14] [%],inhibition [15] [%],inhibition [16] [%],inhibition [17] [%],inhibition [18] [%],inhibition [19] [%],inhibition [20] [%],SMILES,further results
25,14,5,-2,47,15,-9,15,39,10,3.3,10,27,23,52,8,52,-3,17,5,O=C(O)Cc1ccc(-c2nc3cc4ccccc4cc3nc2-c2ccc(CC(=O)O)s2)s1,
54,70,-5,40,23,52,-3,0,18,3,4.28,49,32,30,11,-4,40,-5,29,18,O=C(O)CCc1ccc(-c2nc3cc4ccccc4cc3nc2-c2ccc(CCC(=O)O)s2)s1,
16,,,30,24,5,2,-6,42,15,5.5,47,12,38,8,25,8,9,-7,5,COC(=O)CCCc1ccc(-c2nc3cc4ccccc4cc3nc2-c2ccc(CCCC(=O)OC)s2)s1,IC50 [21]: Not Active

# Further lines, the compound ahead of its results:
SMILES,inhibition [1] [%],inhibition [2] [%],inhibition [3] [%],inhibition [4] [%],inhibition [5] [%],inhibition [6] [%],inhibition [7] [%],inhibition [8] [%],inhibition [9] [%],inhibition [10] [%],logP [11],inhibition [12] [%],inhibition [13] [%],inhibition [14] [%],inhibition [15] [%],inhibition [16] [%],inhibition [17] [%],inhibition [18] [%],inhibition [19] [%],inhibition [20] [%],further results
c1csc(-c2nc3cc4c(cc3nc2-c2cccs2)OCO4)c1,28,71,29,9,-1,38,41,-6,21,14,4.8,54,34,1,14,-4,35,18,6,31,
O=C(O)c1ccc2cc3nc(-c4cccs4)c(-c4cccs4)nc3cc2c1,42,83,42,10,4,56,47,-10,6,11,5.4,68,49,3,18,,40,20,5,15,
c1csc(-c2nc3cc4c(cc3nc2-c2cccs2)OCCO4)c1,38,84,48,8,,46,53,,4,11,5,61,42,19,31,1,34,24,,41,
Oc1cc2nc(-c3cccs3)c(-c3cccs3)nc2cc1O,3,-3,-4,9,5,-7,1,-7,3,1,4.2,,0,6,25,7,25,-3,-8,,
c1csc(-c2nc3cc4ccccc4cc3nc2-c2cccs2)c1,6,20,55,7,6,8,,12,16,4,5.98,15,43,6,11,3,6,6,8,19,
